# How the values were obtained:
# [1] = system: U87 cells; assay: 2-NBDG glucose analog uptake on chip; assay type: cell-based, human; conditions: 20 min incubation in HBSS
# Procedure: (§1) To monitor glucose uptake in U87 cells, a fluorescent deoxyglucose (2-[N-(7-nitrobenz-2-oxa-1,3-diaxol-4-yl)amino]-2-deoxyglucose; 2-NBDG)^72,73 was used and monitored the 2-NBDG uptake by U87 and U87-PTEN cells (FIG. 6). After cells were loaded into a chip, culture medium was washed with Hanks' balanced salt solution (HBSS) with CaCl2. Then, 2-NBDG in HBSS was loaded into a cell chamber and incubated for 20 min in an incubator.
# [2] = system: U87-PTEN cells; assay: 2-NBDG glucose analog uptake on chip; assay type: cell-based, human; conditions: 20 min incubation in HBSS
# Procedure: as §1
# [3] = target: mTOR (Homo sapiens, UniProt P42345+P62942); conditions: glioblastoma patients
# [4] = system: recurrent malignant gliomas; assay: Clinical trial of Avastin (in combination with CPT-11) in patients with recurrent malignant gliomas; assay type: in vivo, human
# Source text: The obvious clinical efficacy of avastin will most certainly change the standard of care for malignant glioma patients. […] We will address the following questions: 1) does increased vascularity predispose towards clinical response to avastin (this will be done in collaboration with Dr. Luisa Iruela-Arispe, a noted expert in angiogenesis at UCLA); 2) are the downstream signaling pathways regulated by VEGF reactivated during response and by what mechanism. Are tumors which are driven by key pathways that promote VEGF expression (i.e. EGFR/PI3K signaling) more sensitive to avastin? In addition to testing lese specific hypotheses, we will apply global screening strategies. These include array CGH to detect chromosomal regions of interest associated with sensitivity and resistance (will be done at MSKCC by Dr. Mellinghoff) and integrated with global gene expression data (done both at UCLA and at MSKCC), in addition, through our NanoSystems Biology Cancer Center, we have begun collaboration with Dr. Lee Hood to use surface Plasmon resonance to facilitate the quantitative detection of thousands of proteins in a serum samples. This will enable us to identify protein signatures associated with sensitivity and acquired resistance.
compound,measurement,setting,value
"O=[N+]([O-])c1ccc(N[C@H]2C(O)O[C@H](CO)[C@@H](O)[C@@H]2O)c2nonc12 (stereo partly drawn) [2-NBDG, 2-[N-(7-nitrobenz-2-oxa-1,3-diaxol-4-yl)amino]-2-deoxyglucose]",fluorescent signal of 2-NBDG uptake,[1],signals of 2-NBDG were observed
same,fluorescent signal of 2-NBDG uptake,[2],could not be detected
CO[C@H]1C[C@@H]2CC[C@@H](C)[C@@](O)(O2)C(=O)C(=O)N2CCCC[C@H]2C(=O)O[C@H]([C@H](C)C[C@@H]2CC[C@@H](O)[C@H](OC)C2)CC(=O)[C@H](C)/C=C(\C)[C@@H](O)[C@@H](OC)C(=O)[C@H](C)C[C@H](C)/C=C/C=C/C=C/1C [rapamycin],rapamycin level in tumor tissue in vivo,[3],present in potentially therapeutic levels
same,extent of mTOR pathway inhibition,"[3]; in vivo, variable between patients",10%-80%
"Avastin: VEGF inhibitor, given in combination with CPT-11",median time to tumor progression,"[4]; Avastin with CPT-11, 95% CI=122-272, comparator median 56 days",209 days
same,median overall survival,"[4]; Avastin with CPT-11, 95% CI=251-424, comparator median 184 days",340 days

# From patent US20100291584A1, “MICROFLUIDIC IMAGING CYTOMETRY” (The Regents of the University of California, priority 2008, published 2010)
